Reference: patent US20210340526A1, “NOVEL METHOD FOR TRANSDUCING PROTEIN-PROTEIN INTERACTIONS” (ETH ZÜRICH, priority 2018, published 2021)

Legend:
[1] = target: T1, GPCR ADRB2-AVPR2 (Homo sapiens, UniProt P07550, E27Q/G16R); assay: two-component (NarX/NarL) reporter assay of GPCR/beta-arrestin interaction, pair ADRB2-AVPR2::H^mut and beta-arrestin::N^mut, in HEK293 cells; format: cell-based
T1 construct: expressed in transfected cells; host or cells: HEK293

[2] = system: CMV promoter; assay: iRFP expression from constitutive promoter under stimulation, HEK cells; format: cell-based; conditions: 1 μM of procaterol or 2 μM of epinephrine versus DMEM without ligand
Protocol: (§1) (a) iRFP fluorescence of HEK cells transfected with the plasmid expressing iRFP from the CMV promoter (white bar) or from the EF1α promoter (black bars). The reporter expression in DMEM without any ligand or in the presence of 1 μM of procaterol or 2 μM of epinephrine is shown as indicated. The bar charts display iRFP level normalized to the frequency of the transfection marker Citrine-positive cells (rel. u.) as mean±SD of independent biological triplicates. (b) Activity of the NarX/NarL expressed from CMV or EF1a promoters. Every transfection contains NarL-regulated mCerulean fluorescent protein reporter and plasmids expressing NarL and NarX from CMV, EF1α or EF1α-V1 promoters, as indicated in the chart.
(§2) For any synthetic signalling system, it is important to avoid non-specific changes to the signalling readout. In the system of the invention, the components are expressed from constitutive promoters. However, these promoters are in fact controlled by highly-expressed transcription factors such as Sp1, and there is always a risk that these factors are directly affected by external stimuli via unrelated endogenous pathways. This would result in the change of constitutive expression, and apparent change in the signalling readout that is unrelated to the studied effect and is artefactual. To eliminate these confounding factors, the inventors examined a number of constitutive promoters for their robustness under various stimulation conditions and compared the expression of iRFP from the CMV and EF1α promoters in the presence of different compounds often used to induce cell signalling (Epinephrine and procaterol).

[3] = system: EF1α promoter; assay: as above; format: cell-based; conditions: 1 μM of procaterol or 2 μM of epinephrine versus DMEM without ligand
Protocol: as §1, §2

[4] = system: NarX/NarL system; assay: control: effect of ligand on NarX/NarL signalling in HEK cells; format: cell-based; conditions: 100 nM; HEK cells with NarX or NarX^379to598, NarL and NarL-activated reporter
Protocol: To find out if NarX domains are capable of transducing this interaction (FIG. 3a), the complementing histidine and asparagine NarX mutants described above were fused at their N-terminus to the FKBP (FK) and the FRB^T2098L (FR) proteins, respectively, resulting in the fusions FK::NarX^379to598H399Q (FK::H^mut) and FR::NarX^379to598N509A (FR::N^mut), and the inverse pair FR::H^mut and FK::N^mut. […]
The cells were prepared for FACS analysis 48 h after transfection by removing the medium and incubating the cells with 200 μl StemPro™ Accutase™ Cell Dissociation Reagent (Gibco, cat #A11105-01) at 37° C. for 5 minutes. […] The prepared samples were measured using a BD LSR Fortessa II Cell Analyzer with a combination of excitation and emission that minimizes the crosstalk between different fluorescent reporters. Cerulean was measured with a 445 nm laser and a 473/10 nm emission filter, mCherry with a 561 nm excitation laser coupled to a 600 nm longpass filter and 610/20 emission filter. The Cerulean and the mCherry were measured, respectively, at PMT voltage of 330 and 310 in all the experiments. […]

[5] = target: FKBP and FRB^T2098L (Homo sapiens, UniProt P42345+P62942, T2098L); assay: two-component (NarX/NarL) reporter assay of ligand-induced FKBP/FRB heterodimerization in HEK293 cells; format: cell-based; conditions: pair FR::H^mut and FK::N^mut, NarL and NarL-activated mCerulean reporter, HEK293, Hill function fit of dose-response; read-out: EC50 in the context of the assay
FKBP and FRB^T2098L, sequence (P62942 whole entry, the tested form may be a part): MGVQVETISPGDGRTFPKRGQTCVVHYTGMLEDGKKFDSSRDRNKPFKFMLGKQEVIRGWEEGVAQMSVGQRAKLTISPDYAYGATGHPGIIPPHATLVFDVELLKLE
FKBP and FRB^T2098L, sequence (P42345 2012-2144 T2098L limits assumed): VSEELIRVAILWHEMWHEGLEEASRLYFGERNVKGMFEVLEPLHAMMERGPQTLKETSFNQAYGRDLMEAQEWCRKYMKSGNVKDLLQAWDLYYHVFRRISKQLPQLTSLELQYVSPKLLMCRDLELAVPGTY
Source text: To enable bona fide signalling, the dimerization of the NarX domains should be preferably controlled by an external stimulus. Inducible protein-protein interaction is a common signalling mechanism both in the cytoplasm and across the membrane. A well characterized ligand-induced heterodimerization takes place between the proteins FK506-binding protein 12 (FKBP) and FKBP12-rapamycin binding domain (FRB) mutant FRB^T2098L in the presence of the small molecule A/C heterodimerize (a rapamycin analog Cl 6-(S)-7-methylindolerapamycin, known also as AP21967).
To find out if NarX domains are capable of transducing this interaction (FIG. 3a), the complementing histidine and asparagine NarX mutants described above were fused at their N-terminus to the FKBP (FK) and the FRB^T2098L (FR) proteins, respectively, resulting in the fusions FK::NarX^379to598H399Q (FK::H^mut) and FR::NarX^379to598N509A (FR::N^mut), and the inverse pair FR::H^mut and FK::N^mut. […] Next, the inventors probed the ligand-induced signalling in a fashion similar to the one used for SynZip1-SynZip2 experiments, expressing different fusion variants and control constructs in HEK293 cells, in the presence of the response regulator NarL and NarL-activated reporter construct, this time with and without the ligand (FIG. 3b, FIG. 8). As expected, full length wild type NarX was constitutively active. […]

[6] = target: ADRB2^1to341::AVPR2^343to371::NarX^379to598 H399Q (UniProt P07550); assay: cell-based or functional assay

With `CCC(NC(C)C)C(O)c1ccc(O)c2[nH]c(=O)ccc12` (stereo not drawn) [procaterol] as the molecule, how does the EC50 ([1]; ADRB2-AVPR2::H^mut and beta-arrestin::N^mut, NarL-regulated mCerulean reporter, HEK293, read-out: EC50 from the dose-response curves) read?
Its EC50 is 5 nM.

And the “induction dynamic range of procaterol-triggered signalling” value ([1]; complementary NarX mutants fused to the GPCR receptor and beta-arrestin, with versus without procaterol)?
Its value is “above 3 orders of magnitude”.

What about the “maximum response of downstream gene expression” value ([1]; saturating doses, full agonists) of the same molecule?
Its value is “reach the same maximum response”.

What about the “activity of the CMV promoter (iRFP expression)” value [2] of the same molecule?
The value was “induced by a factor of two”.

What about the “activity of the EF1α promoter (iRFP expression)” value [3] of the same molecule?
Its value is “not affected”.

And the “effect on signalling via the wild-type NarX/NarL system” value [4]?
The value was “did not affect”.

How did the “activity of the CMV promoter (iRFP expression)” value [2] turn out when `CNC[C@H](O)c1ccc(O)c(O)c1` [epinephrine] was run?
The value was “induced by a factor of two”.

And the “activity of the EF1α promoter (iRFP expression)” value [3]?
Its value is “not affected”.

How did the EC50 [5] turn out when Cl 6-(S)-7-methylindolerapamycin [A/C] was run?
Its EC50 is 1.3 nM.

What about the “effect on signalling via the wild-type NarX/NarL system” value [4] of the same molecule?
Its value is “did not affect”.

Which results are given for “ARRB2::NarX^379to598 N509A (from UniProt P32121 1-409)”?
EC50 of the small-molecule agonist isoproterenol for reporter induction [6]: 30 nM; EC50 of the small-molecule agonist procaterol for reporter induction [6]: 5 nM; EC50 of the small-molecule partial agonist clenbuterol for reporter induction [6]: 14 nM; IC50 of the small-molecule antagonist propranolol in the presence of procaterol (reporter) [6]: 2 nM; reporter expression with the partial agonist clenbuterol against the full agonists [6]: 3.5 times lower
